In publication PMC7104285, “Enzymatic Degradation of p-Nitrophenyl Esters, Polyethylene Terephthalate, Cutin, and Suberin by Sub1, a Suberinase Encoded by the Plant Pathogen Streptomyces scabies” (Microbes and Environments, 2020):

Tested on: T1, Sub1
T1 construct: signal peptide removed; pET-30a(+) NcoI/XhoI, His6-tagged (tag kept), expressed in E. coli SHuffle T7
Assay: spectrophotometric p-nitrophenol release at […] nm, Michaelis-Menten fit
Assay type: biochemical, Streptomyces scabiei
Details: Tris-HCl 20 mM, pH 7.5, room temperature; Triton X-100 (0.5%) apparently present

Question: Which Km does the source give for `CCCC(=O)Oc1ccc([N+](=O)[O-])cc1` [p-nitrophenyl butyrate] here?
Answer: Its Km is 570 ± 40 µM.
